A short description of data set [1]: Pharmacokinetics of the compounds in sprague-dawley rats (oral and IV bolus, plasma LC/MS/MS). Format: in vivo. On the procedure:
Compounds were administered to rats orally at a dose of 4-5 mg/kg using PEG-400 as a vehicle. Selected compounds were also administered as an IV bolus at a dose of 1 mg/kg. Plasma samples were obtained from either the portal or jugular veins and analyzed by LC/MS/MS for both the parent pyrimidine-2,4-diamine and the prodrug compounds synthesized in the examples above. Bioavailability was calculated using the AUC of pyrimidine-2,4-diamine in jugular vein samples and the AUC of an IV bolus dose of pyrimidine-2,4-diamine. For selected compounds, portal vein samples were evaluated for both prodrug and pyrimidine-2,4-diamine and the information was used to determine the percent absorption of the orally administered dose.

Data set [2] in a line: Metabolic stability of prodrugs in rat hepatic microsomes. Format: in vitro ADME. The note with it: in the presence of NADPH, first value of cell, read-out: T1/2 (half-life of prodrug). As for the experimental part: (§1) Selected compounds were incubated in rat and human hepatic microsomes (with and without NADPH) and analyzed by LC/MS/MS for both the prodrug and pyrimidine-2,4-diamine.
(§2) Studies were conducted in microsomes to determine whether the prodrug moieties could be hydrolyzed by CYP450 enzymes.

Data set [3] in a line: Metabolic stability of prodrugs in human hepatic microsomes. Format: in vitro ADME. Particulars: in the presence of NADPH, second value of cell, read-out: T1/2 (half-life of prodrug). As for the experimental part: as §1, §2

The structures appear in SMILES notation.

Turning to `COc1cc(N(C(=O)OCCN2CCOCC2)c2ncc(F)c(Nc3ccc4c(n3)NC(=O)C(C)(C)O4)n2)cc(OC)c1OC` [Example 2, N4-(2,2-Dimethyl-3-oxo-4H-5-pyrido[1,4]oxazin-6-yl)-5-fluoro-N2-[[2-(morpholin-4-yl)ethoxy]carbonyl]-N2-(3,4,5-trimethoxyphenyl)-2,4-pyrimidinediamine], in data set [1] (AUC of prodrug in portal vein after oral dose vs AUC in jugular vein after IV dose, dose-corrected), the “% of prodrug absorbed” value is on record as 20%. Further, the clearance in data set [1] (Sprague-Dawley, rat, plasma, IV bolus 1 mg/kg, read-out: Clearance rate of prodrug) stood at 72 mL/min/kg. For the same compound, the half-life in data set [2] and in data set [3] was less than 5 min throughout.
As to `COc1cc(N(C(=O)OCC2CCCCN2C)c2ncc(F)c(Nc3ccc4c(n3)NC(=O)C(C)(C)O4)n2)cc(OC)c1OC` (centres unmarked) [Example 3], the half-life in data set [2] and in data set [3] was less than 5 min each time.
With `COc1cc(N(C(=O)N[C@H](C(=O)OC(C)(C)C)C(C)C)c2ncc(F)c(Nc3ccc4c(n3)NC(=O)C(C)(C)O4)n2)cc(OC)c1OC` [Example 8, 1S—N2-[[-1-(t-Butoxycarbonyl)-2-methylpropyl]aminocarbonyl]-N4-(2,2-dimethyl-3-oxo-4H-5-pyrido[1,4]oxazin-6-yl)-5-fluoro-N2-(3,4,5-trimethoxyphenyl)-2,4-pyrimidinediamine], the half-life in data set [2] was 35 min; in data set [3] it was 10 min.
